The text below walks through data of patent publication US20250188095A1, “DISUBSTITUTED OCTAHYDROPYRROLO[3,4-c]PYRROLYL METHYL KETONE DERIVATIVE AND USE THEREOF” (JIANGSU NHWA PHARMACEUTICAL CO., LTD, priority 2022, published 2025).

In one assay the target is OX1 receptor (Homo sapiens (Human), UniProt O43613). As to the kind of experiment: In vitro activity test (Cisbio IP-one, CHO-K1-OX1 cells, antagonism of EC80 Orexin A). In kind it is cell-based. As to the method:
(§1) (1) Preparation of a reaction buffer (1×Stimulation buffer) required for the experiment: The 5×Stimulation buffer and ddH2O in the Cisbio IP-one kit were diluted in a ratio of 1:4 for later use.
(§2) (2) Compound preparation: The compound was diluted with DMSO to obtain a 5 mM stock solution, followed by a 3.16-fold dilution to obtain 10 gradients, and then the prepared compound was diluted with the Stimulation buffer to the corresponding concentrations (4×) for later use.
(§3) (3) Cell preparation: CHO-K1-OX1 and CHO-K1-OX2 cells on the culture dish were digested with trypsin, and the cells were washed off with culture medium and collected into 5 mL centrifuge tubes. The cells were centrifuged at 1000 rpm for 5 min, and the supernatant was discarded. 3 mL of PBS was added, and the mixture was gently pipetted to be mixed well. The cells were centrifuged again at 1000 rpm for 5 min, and the supernatant was discarded. The cells were resuspended in 1×Stimulation buffer and counted using a Countstar cell counter, and the cell density was adjusted to 1.71×10^6 cells/mL for later use.
(§4) (4) Cell addition: The cell suspensions were added to assay plates at 7 μL/well (i.e., about 12,000 cells/well).
(§5) (5) Compound addition: The compound diluted with the Stimulation buffer was added to the assay plates described above at 3.5 μL/well.
(§6) (6) Reaction and incubation: After gentle shaking, the assay plates were incubated at 37° C. for 30 min.
(§7) (7) EC80 agonist addition: 4×Orexin A (OX1 receptor) and 4×Orexin 2 receptor agonist (OX2 receptor) solutions of EC80 were added at 3.5 μL/well.
(§8) (8) Reaction and incubation: After gentle shaking, the assay plates were incubated at 37° C. for 45 min.
(§9) (9) Detection reagent addition: IP1-d2 and Anti-IP1 cryptate were separately diluted in a 1:20 ratio with the Lysis & detection buffer in the Cisbio IP-one detection kit, and the diluted IP1-d2 and Anti-IP1 cryptate described above were added to the assay plates, each at 3 μL/well. After shaking, the assay plates were left to stand at room temperature for 60 min.
(§10) (10) Experimental readings: The plate was read on Envision, readings from the 665 nm and 615 nm channels were taken, and the ratio of 665 nm/615 nm readings was calculated.
(§11) Based on the antagonistic effect values of the compound sample at different concentration test points, antagonistic curves of the compound sample against the orexin receptors were fitted using GraphPad Prism software, and the IC50 was calculated.

A further assay deals with OX2 receptor (Homo sapiens (Human), UniProt O43614). Description: In vitro activity test (Cisbio IP-one, CHO-K1-OX2 cells, antagonism of EC80 agonist). In kind it is cell-based. The procedure:
as §1, §2, §3, §4, §5, §6, §7, §8, §9, §10, §11

Chain of OX1 receptor (O43613 whole entry): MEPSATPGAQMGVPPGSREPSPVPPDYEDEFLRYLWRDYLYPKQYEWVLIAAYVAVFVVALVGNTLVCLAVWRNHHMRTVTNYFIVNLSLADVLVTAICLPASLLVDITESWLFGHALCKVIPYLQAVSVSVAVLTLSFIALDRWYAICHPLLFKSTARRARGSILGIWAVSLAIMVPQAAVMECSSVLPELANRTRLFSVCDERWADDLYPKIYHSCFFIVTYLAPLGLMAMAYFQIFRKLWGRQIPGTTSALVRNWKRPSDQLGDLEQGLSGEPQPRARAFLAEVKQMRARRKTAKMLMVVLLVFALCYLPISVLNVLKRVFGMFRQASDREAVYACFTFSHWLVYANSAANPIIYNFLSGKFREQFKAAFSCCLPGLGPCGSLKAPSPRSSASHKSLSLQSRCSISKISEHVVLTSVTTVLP
Chain of OX2 receptor (O43614 whole entry): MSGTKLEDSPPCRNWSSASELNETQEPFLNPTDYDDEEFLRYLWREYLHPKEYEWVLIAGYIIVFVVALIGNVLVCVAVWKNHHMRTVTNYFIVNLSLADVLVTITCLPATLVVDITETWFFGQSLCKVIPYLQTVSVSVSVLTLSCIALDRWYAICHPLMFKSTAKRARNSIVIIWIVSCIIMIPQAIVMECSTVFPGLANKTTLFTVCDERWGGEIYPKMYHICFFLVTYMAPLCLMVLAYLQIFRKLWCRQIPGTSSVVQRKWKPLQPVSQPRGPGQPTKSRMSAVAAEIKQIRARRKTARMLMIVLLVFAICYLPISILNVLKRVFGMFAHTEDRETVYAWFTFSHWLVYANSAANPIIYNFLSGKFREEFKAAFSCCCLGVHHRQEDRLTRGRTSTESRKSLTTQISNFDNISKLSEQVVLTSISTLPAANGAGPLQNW

A word on the IC50: it is the concentration at which inhibition is half-maximal. Regarding `Cc1cc(C)nc(N2C[C@H]3CN(C(=O)c4c(-c5ccccc5)cn5ccccc45)C[C@H]3C2)n1` [Example 1, ((3aR,6aS)-5-(4,6-dimethylpyrimidin-2-yl)hexahydropyrrolo[3,4-c]pyrrol-2(1H)-yl)(2-phenylindolizin-1-yl)methanone], the IC50 was over 1000 nM at OX1 receptor and 100 to 300 nM on OX2 receptor.
Turning to `Cc1cc(C)nc(N2C[C@H]3CN(C(=O)c4c(-c5ccccn5)cn5ccccc45)C[C@H]3C2)n1` [Example 2, ((3aR,6aS)-5-(4,6-dimethylpyrimidin-2-yl)hexahydropyrrolo[3,4-c]pyrrol-2(1H)-yl)(2-(pyridin-2-yl)indolizin-1-yl)methanone], the IC50 against OX1 receptor was over 1000 nM; on OX2 receptor it was 100 to 300 nM.
Taken in the same sequence, the figures for `Cc1cc(C)nc(N2C[C@H]3CN(C(=O)c4c(-c5ccc(C)s5)cn5ccccc45)C[C@H]3C2)n1` [Example 4, ((3aR,6aS)-5-(4,6-dimethylpyrimidin-2-yl)hexahydropyrrolo[3,4-c]pyrrol-2(1H)-yl)(2-(5-methylthiophen-2-yl)indolizin-1-yl)methanone] were over 1000 nM and under 100 nM.
For `Cc1cc(C)nc(N2C[C@H]3CN(C(=O)c4c(-c5ccccn5)nn5ccccc45)C[C@H]3C2)n1` [Example 6, ((3aR,6aS)-5-(4,6-dimethylpyrimidin-2-yl)hexahydropyrrolo[3,4-c]pyrrol-2(1H)-yl)(2-(pyridin-2-yl)pyrazolo[1,5-a]pyridin-3-yl)methanone], in that order: over 1000 nM and under 100 nM.
For `Cc1nc(N2C[C@H]3CN(C(=O)c4c(-c5ncccc5F)cn5ccccc45)C[C@H]3C2)nc2ccoc12` [Example 7, (2-(3-fluoropyridin-2-yl)indolizin-1-yl)((3aR,6aS)-5-(4-methylfuro [3,2-d]pyrimidin-2-yl)hexahydropyrrolo[3,4-c]pyrrol-2(1H)-yl)methanone], the figures for the IC50 against OX1 receptor and at OX2 receptor were over 1000 nM and under 100 nM, respectively.
Take `Cc1nc(N2C[C@H]3CN(C(=O)c4c(-c5ncccc5F)cn5ccccc45)C[C@H]3C2)nn2cccc12` [Example 8, (2-(3-Fluoropyridin-2-yl)indolizin-1-yl)((3aR,6aS)-5-(4-methylpyrrolo [2,1-f][1,2,4]triazin-2-yl)hexahydropyrrolo[3,4-c]pyrrol-2(1H)-yl)methanone]: the IC50 is over 1000 nM against OX1 receptor and under 100 nM at OX2 receptor.
`Cc1cc(C)nc(N2C[C@H]3CN(C(=O)c4c(-c5nccs5)cn5ccccc45)C[C@H]3C2)n1` [Example 9, ((3aR,6aS)-5-(4,6-dimethylpyrimidin-2-yl)hexahydropyrrolo[3,4-c]pyrrol-2(1H)-yl)(2-(thiazol-2-yl)indolizin-1-yl)methanone]: the IC50 on OX1 receptor was over 1000 nM; at OX2 receptor, 100 to 300 nM.
Taken in the same sequence, the figures for `O=C(c1c(-c2ncccc2F)cn2ccccc12)N1C[C@@H]2CN(c3cnc4ccccc4n3)C[C@@H]2C1` [Example 10, (2-(3-Fluoropyridin-2-yl)indolizin-1-yl)((3aR,6aS)-5-(quinoxalin-2-yl)hexahydropyrrolo[3,4-c]pyrrol-2(1H)-yl)methanone] were over 1000 nM and 100 to 300 nM.
Take `Cc1cc(C)nc(N2C[C@H]3CN(C(=O)c4c(-c5ncccc5C(F)(F)F)cn5ccccc45)C[C@H]3C2)n1` [Example 11, ((3aR,6aS)-5-(4,6-dimethylpyrimidin-2-yl)hexahydropyrrolo[3,4-c]pyrrol-2(1H)-yl)(2-(3-(trifluoromethyl)pyridin-2-yl)indolizin-1-yl)methanone]: the IC50 against OX1 receptor is over 1000 nM; at OX2 receptor it was 100 to 300 nM.
Regarding `Cc1cc(C)nc(N2C[C@H]3CN(C(=O)c4c(-c5ccccc5)nn5cccnc45)C[C@H]3C2)n1` [Example 12, ((3aR,6aS)-5-(4,6-dimethylpyrimidin-2-yl)hexahydropyrrolo[3,4-c]pyrrol-2(1H)-yl)(2-phenylpyrazolo[1,5-a]pyrimidin-3-yl)methanone], the IC50 at OX1 receptor is over 1000 nM; on OX2 receptor, 100 to 300 nM.
For `Cc1cc(C)nc(N2C[C@H]3CN(C(=O)c4c(-c5ccccc5)nn5ccncc45)C[C@H]3C2)n1` [Example 13, ((3aR,6aS)-5-(4,6-dimethylpyrimidin-2-yl)hexahydropyrrolo[3,4-c]pyrrol-2(1H)-yl)(2-phenylpyrazolo[1,5-a]pyrazin-3-yl)methanone], in that order: over 1000 nM and 100 to 300 nM.
Taken in the same sequence, the figures for `Cc1cc(C)nc(N2C[C@H]3CN(C(=O)c4c(-c5ccccc5)nn5ncccc45)C[C@H]3C2)n1` [Example 14, ((3aR,6aS)-5-(4,6-dimethylpyrimidin-2-yl)hexahydropyrrolo[3,4-c]pyrrol-2(1H)-yl)(2-phenylpyrazolo[1,5-b]pyridazin-3-yl)methanone] were over 1000 nM and 100 to 300 nM.
With `Cc1cc(C)nc(N2C[C@H]3CN(C(=O)c4c(-c5ccccc5F)cn5ccccc45)C[C@H]3C2)n1` [Example 15, ((3aR,6aS)-5-(4,6-dimethylpyrimidin-2-yl)hexahydropyrrolo[3,4-c]pyrrol-2(1H)-yl)(2-(2-fluorophenyl)indolizin-1-yl)methanone], the figures for the IC50 on OX1 receptor and at OX2 receptor were over 1000 nM and under 100 nM, respectively.
For the compound `Cc1cc(C)nc(N2C[C@H]3CN(C(=O)c4c(-c5ccsc5)cn5ccccc45)C[C@H]3C2)n1` [Example 17, ((3aR,6aS)-5-(4,6-dimethylpyrimidin-2-yl)hexahydropyrrolo[3,4-c]pyrrol-2(1H)-yl)(2-(thiophen-3-yl)indolizin-1-yl)methanone], on OX2 receptor, the IC50 was under 100 nM.
Regarding `Cc1cc(C)nc(N2C[C@H]3CN(C(=O)c4c(-c5ncccc5F)cn5cc(F)ccc45)C[C@H]3C2)n1` [Example 18, ((3aR,6aS)-5-(4,6-dimethylpyrimidin-2-yl)hexahydropyrrolo[3,4-c]pyrrol-2(1H)-yl)(6-fluoro-2-(3-fluoropyridin-2-yl)indolizin-1-yl)methanone], the IC50 was over 1000 nM against OX1 receptor and under 100 nM on OX2 receptor.
As for `Cc1cc(C)nc(N2C[C@H]3CN(C(=O)c4c(-c5ccccn5)cn5cc(F)ccc45)C[C@H]3C2)n1` [Example 19, ((3aR,6aS)-5-(4,6-dimethylpyrimidin-2-yl)hexahydropyrrolo[3,4-c]pyrrol-2(1H)-yl)(6-fluoro-2-(pyridin-2-yl)indolizin-1-yl)methanone], the results for the IC50 at OX1 receptor and on OX2 receptor were over 1000 nM and under 100 nM, respectively.
Consider `Cc1cc(C)nc(N2C[C@H]3CN(C(=O)c4c(-c5ncco5)cn5ccccc45)C[C@H]3C2)n1` [Example 20, ((3aR,6aS)-5-(4,6-dimethylpyrimidin-2-yl)hexahydropyrrolo[3,4-c]pyrrol-2(1H)-yl)(2-(oxazol-2-yl)indolizin-1-yl)methanone], for which the IC50 was over 1000 nM against OX1 receptor and under 100 nM on OX2 receptor.
For `Cc1cc(C)nc(N2C[C@H]3CN(C(=O)c4c(-c5ncccn5)cn5ccccc45)C[C@H]3C2)n1` [Example 21, ((3aR,6aS)-5-(4,6-dimethylpyrimidin-2-yl)hexahydropyrrolo[3,4-c]pyrrol-2(1H)-yl)(2-(pyrimidin-2-yl)indolizin-1-yl)methanone], in that order: over 1000 nM and under 100 nM.
For `Cc1nc(N2C[C@H]3CN(C(=O)c4c(-c5ccccn5)cn5ccccc45)C[C@H]3C2)nc(C)c1F` [Example 24, ((3aR,6aS)-5-(5-fluoro-4,6-dimethylpyrimidin-2-yl)hexahydropyrrolo [3,4-c]pyrrol-2(1H)-yl)(2-(pyridin-2-yl)indolizin-1-yl)methanone], in that order: over 1000 nM and under 100 nM.
For `Cc1nc(N2C[C@H]3CN(C(=O)c4c(-c5ncccc5F)cn5ccccc45)C[C@H]3C2)nc2c1CCC2` [Example 26, (2-(3-fluoropyridin-2-yl)indolizin-1-yl)((3aR,6aS)-5-(4-methyl-6,7-dihydro-5H-cyclopenta[d]pyrimidin-2-yl)hexahydropyrrolo[3,4-c]pyrrol-2(1H)-yl)methanone], in that order: over 1000 nM and under 100 nM.
As to `Cc1cc(C)nc(N2C[C@H]3CN(C(=O)c4c(-c5cccs5)cn5ccccc45)C[C@H]3C2)n1` [Example 28], the IC50 at OX1 receptor is over 1000 nM; on OX2 receptor it was under 100 nM.
